Results: patent US20030114498A1, “Remedies for malignant tumor-concomitant neurosis and azoor or analogous diseases thereof” (priority 2002, published 2003)
Entries after “also recorded” stand apart in the source; their conditions may differ.

Key:
AZOOR [1] = conditions: reported case, administration for two weeks; cited from earlier work
AZOOR [2] = experiment: Clinical case: therapeutic effect on AZOOR, static visual field examination (Humphrey visual field analyzer); type: in vivo, human patient; conditions: person
Excerpt: Example of Clinical Trial (Therapeutic Effect on AZOOR)
The patient became aware of dark and blurred vision in the center of their visual field on Sep. 1, 1999, and visited Ohyachi Kyoritsu Eye Clinic on September 4 in the same year. […] ERG was subnormal and normal for the right and left eyes, respectively. […] FAG detected mild leakage of fluorescein from the optic disc of the right eye. In view of these observations, optic nerve disorder was suspected and the patient was made to visit a brain surgeon in the neighborhood to receive CT and MRT examinations. However, no abnormality was found. […] To treat the eye symptom, the clinic prescribed oral medications such as drug for ameliorating circulation for a while, but no improvement of visual field was observed. Thus, on Oct. 1, 1999, the patient was referred to the Department of ophthalmology at Sapporo Medical University, School of Medicine for close examination.
Visual acuity was Vd=1.2 and Vs=1.2. Although pupils were round and equal in size, the right eye was RAPD(+) but no oculomotor abnormalities were observed. […] In the static visual field examination, reduction of the sensitivity in the central visual field was observed.
Oral administration of prednisolone (40 mg/day) was started on Oct. 1, 1999. The patient became aware of dark and blurred vision also in the center of the visual field of their left eye on Oct. 20, 1999. […]

apoptosis caused by CAR = experiment: Therapeutic effect on cancer-associated neuropathy: ERG in rats given anti-recoverin and anti-hsp70 antibodies into the vitreous body; type: in vivo, Lewis rats; conditions: nilvadipine 3.2 mg/kg/day peritoneal for two weeks with antibody infusion into vitreous body; follow-up five weeks; 24 h light; FIG. 1
Procedure: Example of Experiment (Therapeutic Effect on Cancer-Associated Neuropathy)
Test animal: Lewis rats (8 weeks of age) Treatment group 5 animals (10 eyes) Control group 5 animals (10 eyes)
Photoenvironment: Apoptosis (cell death) was induced under light for 24 hours.
Test drugs: Nilvadipine (3.2 mg/kg/day) by peritoneal administration (dissolving solution) polyethylene glycol 400: ethanol:water=1:1:2 Predonine (0.6 μg/kg/day) by intramuscular injection (dissolving solution) PBS (phosphate buffer solution) Cyclosporine A (10 mg/kg/day) by intramuscular injection (dissolving solution) olive oil
Antibodies: anti-recoverin antibody (5 μl/eye) anti-hsp70 antibody (5 μl/eye)
Test drugs were administered for two weeks along with infusion of antibodies into vitreous body of the eye.
Follow-up observation was performed for five weeks after the start of administration. PBS alone was administered to the control group.
In FIG. 1, the vertical axis represents ERG (electroretinogram) amplitude, and the horizontal axis is the lapse of time in weeks. Δ: nilvadipine group; □: predonine group; ⋄: cyclosporin A group; and ◯: control group.

[3] = launched ten years ago; cited from earlier work

For `Nc1nc2c(ncn2COCCO)c(=O)[nH]1` [aciclovir], which “progress of visual field defect in the other eye” value (AZOOR [1]) is on record?
The value was “stopped”.

For `COC(=O)C1=C(C#N)NC(C)=C(C(=O)OC(C)C)C1c1cccc([N+](=O)[O-])c1` (centres unmarked) [nilvadipine, isopropyl 6-cyano-5-methoxycarbonyl-2-methyl-4-(3-nitrophenyl)-1,4-di hydropyridine-3-carboxylate ester], which “static visual field / visual sensitivity after nilvadipine” value (AZOOR [2]; two months after start of oral nilvadipine (Depo-Medrol sub-Tenon's injection three days earlier), FIGS. 4 and 5) is on record?
Its value is “remarkable improvement of visual sensitivity”.

What about the “ERG (electroretinogram) amplitude, effectiveness compared with the other test drugs” value (apoptosis caused by CAR) of the same compound?
Its value is “more effective than predonine and cyclosporin A”.

And the side effects [3]?
Its side effects is “no noteworthy serious side effects”.

With `C[C@]12C=CC(=O)C=C1CC[C@@H]1[C@@H]2[C@@H](O)C[C@@]2(C)[C@H]1CC[C@]2(O)C(=O)CO` [prednisolone] as the compound, how does the “visual field defect under oral prednisolone” value (AZOOR [2]; oral prednisolone 40 mg/day reduced to 10 mg/day, FIGS. 2 and 3) read?
The value was “no amelioration of the visual field defect; also recorded: could not improve the visual field”.
